From ChEMBL document CHEMBL5390265, “Design, Synthesis, and Pharmacological Evaluation of Multisubstituted Pyrido[4,3-d]pyrimidine Analogues Bearing Deuterated Methylene Linkers as Potent KRASG12D Inhibitors” (J Med Chem, 2023) come the findings set out here.

Common to all, as to assay type: functional, cell-based
One assay concerns ASPC1. The assay can be described thus: Antiproliferative activity against human ASPC1 cells harboring […] assessed as inhibition of cell growth incubated for 5 days by crystal violet staining analysis.
The test system of the next assay is AGS. The assay can be described thus: Antiproliferative activity against human AGS cells harboring […] assessed as inhibition of cell growth incubated for 5 days by crystal violet staining analysis.
The subject of a further assay is A549. The assay can be described thus: Antiproliferative activity against human A549 cells harboring […] assessed as inhibition of cell growth incubated for 5 days by crystal violet staining analysis.
For a further assay, the system named is NCI-H1299. The assay can be described thus: Antiproliferative activity against human NCI-H1299 cells harboring KRAS wild type assessed as inhibition of cell growth incubated for 5 days by crystal violet staining analysis. Conditions: NCI-H1299, 120 h.

Molecules are shown by their SMILES.

Turning to `[2H]C([2H])(Oc1nc(N2C[C@H]3CC[C@@H](C2)N3C)c2cnc(-c3cc(O)cc4ccc(F)c(C#C)c34)c(F)c2n1)C12CCCN1CC(=C(F)F)C2` (stereo not given in full), the IC50 in the assay with ASPC1 (Homo sapiens, ASPC1, 120 h) is > 50 nM; in the assay on AGS (Homo sapiens, AGS, 120 h) it was > 50 nM; in the assay with A549 (Homo sapiens, A549, 120 h) it was > 5000 nM; in the assay on NCI-H1299, > 5 µM.
For `[2H]C1([2H])CCC2(C([2H])([2H])Oc3nc(N4C[C@H]5CC[C@@H](C4)N5)c4cnc(-c5cc(O)cc6ccc(F)c(C#C)c56)c(F)c4n3)CC(=C)CN12` (stereo not given in full), the IC50 in the assay on ASPC1 (Homo sapiens, ASPC1, 120 h) is 2 nM; with AGS (Homo sapiens, AGS, 120 h) it was 0.8 nM; in the assay with A549 (Homo sapiens, A549, 120 h), 1680 nM; in the assay on NCI-H1299 it was > 5 µM.
For the compound `C#Cc1c(F)ccc2cc(O)cc(-c3ncc4c(N5C[C@H]6CC[C@@H](C5)N6)nc(OC[C@]56CCCN5[C@@H](Cn5cc(COCCOC)nn5)CC6)nc4c3F)c12` (racemic), the IC50 in the assay with ASPC1 (Homo sapiens, ASPC1, 120 h) is > 50 nM; in the assay on AGS (Homo sapiens, AGS, 120 h), > 50 nM; in the assay on A549 (Homo sapiens, A549, 120 h), > 5000 nM; with NCI-H1299, > 5 µM.
As for `[2H]C([2H])(Oc1nc(N2C[C@H]3CC[C@@H](C2)N3)c2cnc(-c3cc(O)cc4ccc(F)c(C#C)c34)c(F)c2n1)C12CC(=C)CN1CC1(CC1)C2` (stereo not given in full), the IC50 came out at 3.9 nM in the assay with ASPC1 (Homo sapiens, ASPC1, 120 h); 1.1 nM in the assay on AGS (Homo sapiens, AGS, 120 h); 944 nM in the assay on A549 (Homo sapiens, A549, 120 h); 3.02 µM with NCI-H1299.
The corresponding values for `C#Cc1c(F)ccc2cc(O)cc(-c3ncc4c(N5C[C@H]6CC[C@@H](C5)N6)nc(OC[C@H]5CC6CCN5C[C@@H]6C=C)nc4c3F)c12` are > 50 nM, > 50 nM, > 5000 nM and > 5 µM.
Take `C#Cc1c(F)ccc2cc(O)cc(-c3ncc4c(N5C[C@H]6CC[C@@H](C5)N6)nc(OC[C@]56CCCN5[C@@H](Cn5cc(CCC#N)nn5)CC6)nc4c3F)c12` (racemic): the IC50 was > 50 nM in the assay with ASPC1 (Homo sapiens, ASPC1, 120 h); > 50 nM in the assay on AGS (Homo sapiens, AGS, 120 h); > 5000 nM in the assay with A549 (Homo sapiens, A549, 120 h); > 5 µM in the assay on NCI-H1299.
With `[2H]C([2H])(Oc1nc(N2C[C@H]3CC[C@@H](C2)N3)c2cnc(-c3cc(O)cc4ccc(F)c(C#C)c34)c(F)c2n1)C12CC(=C)CN1CC(=C(F)F)C2` (stereo not given in full), the IC50 in the assay on ASPC1 (Homo sapiens, ASPC1, 120 h) is 1.1 nM; in the assay with AGS (Homo sapiens, AGS, 120 h) it was 0.6 nM; in the assay on A549 (Homo sapiens, A549, 120 h), 960 nM; in the assay on NCI-H1299, 1.93 µM.
For `C#Cc1c(F)ccc2cc(O)cc(-c3ncc4c(N5C[C@H]6CC[C@@H](C5)N6)nc(OCCn5cc(COCC67CCCN6CC(=C)C7)nn5)nc4c3F)c12` (stereo not given in full), in that order: > 50 nM, > 50 nM, > 5000 nM and > 5 µM.
As to `[2H]C([2H])(Oc1nc(N2C[C@H]3CC[C@@H](C2)N3)c2cnc(-c3cccc4cc(F)c(F)c(C#C)c34)c(F)c2n1)C12CCCN1CC(=C(F)F)C2` (stereo not given in full), the IC50 in the assay with ASPC1 (Homo sapiens, ASPC1, 120 h) is > 50 nM; in the assay on AGS (Homo sapiens, AGS, 120 h), > 50 nM; in the assay on A549 (Homo sapiens, A549, 120 h), > 5000 nM; with NCI-H1299, > 5 µM.
Turning to `[2H]C([2H])(Oc1nc(N2C[C@H]3CC[C@@H](C2)N3)c2cnc(-c3cccc4c(F)cc(F)c(C#C)c34)c(F)c2n1)C12CCCN1CC(=C(F)F)C2` (stereo not given in full), the IC50 in the assay with ASPC1 (Homo sapiens, ASPC1, 120 h) is > 50 nM; in the assay on AGS (Homo sapiens, AGS, 120 h), > 50 nM; with A549 (Homo sapiens, A549, 120 h) it was > 5000 nM; with NCI-H1299, > 5 µM.
`[2H]C([2H])(Oc1nc(N2C[C@H]3CC[C@@H](C2)N3)c2cnc(-c3c(Cl)c(C)cc4[nH]ncc34)c(F)c2n1)C12CCCN1CC(=C(F)F)C2` (stereo not given in full): the IC50 with ASPC1 (Homo sapiens, ASPC1, 120 h) is > 50 nM; with AGS (Homo sapiens, AGS, 120 h), > 50 nM; with A549 (Homo sapiens, A549, 120 h), > 5000 nM; in the assay with NCI-H1299, > 5 µM.
Regarding `C#Cc1c(F)ccc2cc(O)cc(-c3ncc4c(N5C[C@H]6CC[C@@H](C5)N6)nc(NCCCn5cc(COCC67CCCN6CC(=C)C7)nn5)nc4c3F)c12` (stereo not given in full), the IC50 in the assay with ASPC1 (Homo sapiens, ASPC1, 120 h) was > 50 nM; in the assay with AGS (Homo sapiens, AGS, 120 h) it was > 50 nM; with A549 (Homo sapiens, A549, 120 h), > 5000 nM; in the assay on NCI-H1299, > 5 µM.
Consider `[2H]C([2H])(Oc1nc(N2C[C@H]3CC[C@@H](C2)N3)c2cnc(-c3cc(O)cc4ccc(F)c(C#C)c34)c(F)c2n1)C12CCCN1CC(=C)C2` (stereo not given in full), for which the IC50 with ASPC1 (Homo sapiens, ASPC1, 120 h) is 3.8 nM; in the assay with AGS (Homo sapiens, AGS, 120 h), 1.1 nM; in the assay with A549 (Homo sapiens, A549, 120 h) it was 948 nM; in the assay with NCI-H1299 it was > 5 µM.
`[2H]C([2H])(Oc1nc(N2C[C@H]3CC[C@@H](C2)N3)c2cnc(-c3cc(N)cc4cccc(C#C)c34)c(F)c2n1)C12CCCN1CC(=C(F)F)C2` (stereo not given in full): the IC50 in the assay with ASPC1 (Homo sapiens, ASPC1, 120 h) was found to be 2 nM; with AGS (Homo sapiens, AGS, 120 h), 1.2 nM; in the assay with A549 (Homo sapiens, A549, 120 h) it was 2180 nM; in the assay on NCI-H1299 it was 2.5 µM.
For `C#Cc1c(F)ccc2cc(O)cc(-c3ncc4c(N5C[C@H]6CC[C@@H](C5)N6)nc(OC[C@]56CCCN5[C@@H](COC(=O)NCC57C[C@H]8C[C@@H](C5)C[C@@H](C7)C8)CC6)nc4c3F)c12` (mixture of isomers), in that order: 42.2 nM, 12.6 nM, > 5000 nM and > 5 µM.
The corresponding values for `C#Cc1c(F)ccc2cc(O)cc(-c3ncc4c(N5C[C@H]6CC[C@@H](C5)N6)nc(OCC56CCCN5CC(=C)C6)nc4c3F)c12` (stereo not given in full) are 4.6 nM, 1.4 nM, 2220 nM and > 5 µM.
For `C#CCN(C)C(=O)OC[C@H]1CC[C@@]2(COc3nc(N4C[C@H]5CC[C@@H](C4)N5)c4cnc(-c5cc(O)cc6ccc(F)c(C#C)c56)c(F)c4n3)CCCN12`, the IC50 in the assay on ASPC1 (aspc1) is 207 nM; with AGS (ags), 59.3 nM; in the assay on A549 (a549), > 5000 nM.
As to `C#Cc1c(F)ccc2cc(O)cc(-c3ncc4c(N5C[C@H]6CC[C@@H](C5)N6)nc(OC[C@]56CCCN5[C@@H](COC(=O)N5CCS(=O)(=O)CC5)CC6)nc4c3F)c12` (racemic), the IC50 in the assay with ASPC1 (Homo sapiens, ASPC1, 120 h) was > 50 nM; in the assay with AGS (Homo sapiens, AGS, 120 h), > 50 nM; with A549 (Homo sapiens, A549, 120 h), > 5000 nM; with NCI-H1299, > 5 µM.
As for `[2H]C([2H])(Oc1nc(N[C@H]2CCCC[C@@H]2N(C)C)c2cnc(-c3cc(O)cc4ccc(F)c(C#C)c34)c(F)c2n1)C12CCCN1CC(=C(F)F)C2` (stereo not given in full), the IC50 is > 50 nM in the assay on ASPC1 (Homo sapiens, ASPC1, 120 h); > 50 nM in the assay with AGS (Homo sapiens, AGS, 120 h); > 5000 nM in the assay on A549 (Homo sapiens, A549, 120 h); > 5 µM in the assay with NCI-H1299.
On to `[2H]C([2H])(Oc1nc(NCC23CCCN2CCC3)c2cnc(-c3cc(O)cc4ccc(F)c(C#C)c34)c(F)c2n1)C12CCCN1CC(=C(F)F)C2` (stereo not given), for which the IC50 is > 50 nM with ASPC1 (Homo sapiens, ASPC1, 120 h); > 50 nM in the assay on AGS (Homo sapiens, AGS, 120 h); > 5000 nM with A549 (Homo sapiens, A549, 120 h); > 5 µM in the assay on NCI-H1299.
With `C#CCN(C)C(=O)OC[C@@H]1CC[C@]2(COc3nc(N4C[C@H]5CC[C@@H](C4)N5)c4cnc(-c5cc(O)cc6ccc(F)c(C#C)c56)c(F)c4n3)CCCN12`, the IC50 with ASPC1 (Homo sapiens, ASPC1, 120 h) was 23.9 nM; with AGS (Homo sapiens, AGS, 120 h), 15.4 nM; in the assay with A549 (Homo sapiens, A549, 120 h), 1020 nM; with NCI-H1299, > 5 µM.
On to `[2H]C([2H])(Oc1nc(N2CCC(N(C)C)C2)c2cnc(-c3cc(O)cc4ccc(F)c(C#C)c34)c(F)c2n1)C12CCCN1CC(=C(F)F)C2` (stereo not given), for which the IC50 in the assay on ASPC1 (Homo sapiens, ASPC1, 120 h) was > 50 nM; with AGS (Homo sapiens, AGS, 120 h), > 50 nM; in the assay on A549 (Homo sapiens, A549, 120 h), > 5000 nM; in the assay on NCI-H1299, > 5 µM.
Regarding `[2H]C([2H])(Oc1nc(N2C[C@H]3CC[C@@H](C2)N3)c2cnc(-c3cc(O)cc4ccc(F)c(C#C)c34)c(F)c2n1)C12CC(=C)CN1C[C@H](F)C2` (stereo not given in full), the IC50 is 1.6 nM in the assay on ASPC1 (Homo sapiens, ASPC1, 120 h); 0.8 nM with AGS (Homo sapiens, AGS, 120 h); 2160 nM in the assay with A549 (Homo sapiens, A549, 120 h); > 5 µM in the assay on NCI-H1299.
For `C#Cc1c(F)ccc2cc(O)cc(-c3ncc4c(N5C[C@H]6CC[C@@H](C5)N6)nc(OC(C)C56CCCN5CC(=C)C6)nc4c3F)c12` (stereo not given in full), in that order: > 50 nM, > 50 nM, 4500 nM and > 5 µM.
`C#CCN(C)C(=O)OC[C@H]1CC[C@@]2(COc3nc(N4C[C@H]5CC[C@@H](C4)N5)c4cnc(-c5cc(O)cc6ccc(F)c(C#C)c56)c(F)c4n3)CCCN12` (racemic): the IC50 is 39.4 nM with ASPC1 (aspc1), 25.5 nM in the assay with AGS (ags), 1760 nM in the assay with A549 (a549) and > 5 µM in the assay on NCI-H1299.
In the case of `[2H]C(Oc1nc(N2C[C@H]3CC[C@@H](C2)N3)c2cnc(-c3cc(O)cc4ccc(F)c(C#C)c34)c(F)c2n1)C12CCCN1CC(=C)C2` (stereo not given in full), the IC50 with ASPC1 (Homo sapiens, ASPC1, 120 h) was 2.1 nM; with AGS (Homo sapiens, AGS, 120 h), 1.3 nM; in the assay on A549 (Homo sapiens, A549, 120 h), 731 nM; with NCI-H1299 it was > 5 µM.
The corresponding values for `[2H]C([2H])(Oc1nc(N2C[C@H]3CC[C@@H](C2)N3)c2cnc(-c3cc(O)cc4ccc(F)c(C#C)c34)c(F)c2n1)C12CC(=C)CN1CC(=C)C2` are 1.3 nM, 0.4 nM, 559 nM and 2.01 µM.
The corresponding values for `C#Cc1c(F)ccc2cc(O)cc(-c3ncc4c(N5C[C@H]6CC[C@@H](C5)N6)nc(N5C[C@@H]6C[C@H](C5)c5cccc(=O)n5C6)nc4c3F)c12` are > 50 nM, > 50 nM, > 5000 nM and > 5 µM.
The corresponding values for `C#Cc1c(F)ccc2cc(O)cc(-c3ncc4c(N5C[C@H]6CC[C@@H](C5)N6)nc(OC[C@]56CCCN5[C@@H](Cn5cc(C(C)(C)O)nn5)CC6)nc4c3F)c12` (racemic) are > 50 nM, > 50 nM, > 5000 nM and > 5 µM.
